Measurements from patent US8686048B2, “Immunomodulator and anti-inflammatory compounds” (Rhizen Pharmaceuticals SA, priority 2010, dated 2014).

Columns and labels:
IL-17 = test: Inhibition of IL-17 release from mouse splenocytes (PMA + ionomycin, ELISA); type: cell-based, Balb/c mice; settings: Splenocyte, 10 μM, 3 h
Procedure: 2. Inhibition of IL-17 Release from Mouse Splenocytes:
Splenocytes isolated from Balb/c mice were re-suspended in RPMI medium at a concentration of 1×10^6 cells/ml and seeded in a 6 well plate. Cells were incubated with desired concentrations of the inhibitor for 15 min prior to induction with 10 ng/ml PMA+1 μM ionomycin. After a 3 h incubation, supernatant was collected and analyzed for IL-17 concentration using an ELISA kit. Data were analyzed using GraphPad Prism. IC50 values for each compound were determined based on the percent inhibition due to the test compound compared to the control.

h-DHODH = biological target: T1, h-DHODH (Homo sapiens, UniProt Q02127); test: Dihydro-orotate dehydrogenase inhibition assay (U937 membrane preparations, DCIP reduction); type: biochemical; settings: U937 membrane preparation; for inhibition at 0.3 µM: compound tested at 0.3 uM (footnote *)
T1 construct: endogenous in cells; host or cells: U937 cells (membrane fraction, solubilised with 1% octyl glucoside)
Procedure: Dihydro-Orotate Dehydrogenase Inhibition Assay
Dihydro-orotate dehydrogenase (DHODH) catalyzes the […] of dihydro-orotate to orotate during de novo biosynthesis of pyrimidines Inhibition of DHODH activity in U937 membrane preparations was measured by the dihydro-orotate driven reduction of 2,6 dichloroindophenol (DCIP).
U937 cells were homogenized in 20 mM Tris/HCl (pH 7.2) containing 1 mM EDTA. […] Following washes, the pellet was dissolved in 20 mM Tris/HCl containing 150 mM NaCl, 1 mM EDTA, and 1% octyl glucoside on ice for 1 h. Particulate matter was removed by centrifugation at 100000×g for 1 h at 4° C. […] The mixture was incubated at 37° C. for 4 h before measuring the change in absorbance on a plate reader (BMG Labtech., Germany) at 600 nm. Data were analyzed using GraphPad Prism. IC50 for each compound was determined based on the percent inhibition of dihydro-orotate […].

T1 sequence (Q02127 whole entry): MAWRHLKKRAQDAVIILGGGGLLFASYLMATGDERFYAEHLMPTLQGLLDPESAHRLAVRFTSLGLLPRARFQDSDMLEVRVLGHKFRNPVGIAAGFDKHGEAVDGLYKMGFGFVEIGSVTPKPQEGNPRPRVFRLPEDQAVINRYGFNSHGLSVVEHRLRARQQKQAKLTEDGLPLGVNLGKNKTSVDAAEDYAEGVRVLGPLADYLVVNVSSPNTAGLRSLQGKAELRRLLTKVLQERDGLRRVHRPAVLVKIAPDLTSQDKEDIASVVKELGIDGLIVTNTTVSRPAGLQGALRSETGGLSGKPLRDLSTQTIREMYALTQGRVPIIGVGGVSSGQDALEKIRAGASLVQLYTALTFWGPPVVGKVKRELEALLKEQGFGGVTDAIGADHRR

Structure (SMILES)	inhibition at 1 µM (h-DHODH)	IC50 (h-DHODH)	inhibition at 0.3 µM (h-DHODH)	inhibition at 10 µM (h-DHODH; compound tested at 10 uM)	inhibition at 10 µM (IL-17)
O=C(O)c1ccccc1C(=O)Nc1c(F)cc(-c2cccc(OC(F)F)c2)cc1Cl [Example 44, 2-[3-Chloro-3′-(difluoromethoxy)-5-fluorobiphenyl-4-ylcarbamoyl]benzoic acid]	71.1%	90.6 nM	–	–	35%
Cc1nn(C)c2ccc(-c3cc(F)c(NC(=O)c4ccccc4C(=O)O)c(F)c3)cc12 [Example 54, 2-[4-(1,3-Dimethyl-1H-indazol-5-yl)-2,6-difluorophenylcarbamoyl]benzoic acid]	–	–	–	–	22.6%
O=C(O)c1ccccc1C(=O)Nc1c(F)cc(-c2ccc3c(c2)OCO3)cc1Cl [Example 48, 2-[4-(Benzo[d][1,3]dioxol-5-yl)-2-chloro-6-fluorophenylcarbamoyl]benzoic acid]	47.1%	–	–	–	22%
COc1ccc(-c2cc(F)c(NC(=O)c3ccccc3C(=O)O)c(Cl)c2)cc1OC [Example 56, 2-(3-Chloro-5-fluoro-3′,4′-dimethoxybiphenyl-4-ylcarbamoyl)benzoic acid]	1.77%	–	–	–	5.49%
COc1ccc(Cl)c(-c2cc(F)c(NC(=O)c3ccccc3C(=O)O)c(Cl)c2)c1 [Example 57, 2-(2′,3-Dichloro-5-fluoro-5′-methoxybiphenyl-4-ylcarbamoyl)benzoic acid]	68.1%	–	–	–	–
COc1cccc(-c2ccc(NC(=O)c3ccccc3C(=O)O)c(F)c2)c1 [Example 69, 2-(3-fluoro-3′-methoxybiphenyl-4-ylcarbamoyl)benzoic acid]	22%	–	–	–	5.54%
CCOc1cccc(-c2cc(F)c(NC(=O)c3cccc(F)c3C(=O)O)c(Cl)c2)c1 [Example 38, 2-(3-Chloro-3′-ethoxy-5-fluorobiphenyl-4-ylcarbamoyl)-6-fluorobenzoic acid]	27.8%	–	–	–	9.35%
O=C(O)c1ccccc1C(=O)Nc1c(F)cc(OCc2ccccc2)cc1F [Example 40, 2-[4-(Benzyloxy)-2,6-difluorophenylcarbamoyl]benzoic acid]	–	–	–	–	8.79%
CCOc1cccc(-c2cc(F)c(NC(=O)c3c(Cl)ccc(Cl)c3C(=O)O)c(F)c2)c1 [Example 28, 3,6-dichloro-2-(3′-ethoxy-3,5-difluorobiphenyl-4-ylcarbamoyl)benzoic acid]	12.9%	–	–	–	18.8%
O=C(O)c1ccccc1C(=O)Nc1ccc(-c2ccccc2)cc1 [Example 85, 2-(biphenyl-4-ylcarbamoyl)benzoic acid]	–	–	15.1%	–	13%
O=C(O)c1ccccc1C(=O)Nc1c(F)cc(-c2ccc3c(c2)OCCO3)cc1Cl [Example 67, 2-[2-chloro-4-(2,3-dihydrobenzo[b][1,4]dioxin-6-yl)-6-fluorophenylcarbamoyl]benzoic acid]	54.1%	–	–	–	3.56%
CCOc1cccc(-c2cc(F)c(NC(=O)c3ccccc3CO)c(Cl)c2)c1 [Example 36, N-(3-Chloro-3′-ethoxy-5-fluorobiphenyl-4-yl)-2-(hydroxymethyl)benzamide]	–	–	–	–	45.5%
COc1ccc(-c2cc(F)c(NC(=O)c3ccccc3C(=O)O)c(F)c2)cc1OC [Example 49, 2-(3,5-Difluoro-3′,4′-dimethoxybiphenyl-4-ylcarbamoyl)benzoic acid]	–	–	–	–	3.95%
COc1cc(-c2cc(F)c(NC(=O)c3ccccc3C(=O)O)c(Cl)c2)ccc1Cl [Example 60, 2-(3,4′-Dichloro-5-fluoro-3′-methoxybiphenyl-4-ylcarbamoyl)benzoic acid]	41.8%	–	–	–	20.3%
COc1cc(Cl)cc(-c2cc(F)c(NC(=O)c3ccccc3C(=O)O)c(Cl)c2)c1 [Example 51, 2-(3,3′-Dichloro-5-fluoro-5′-methoxybiphenyl-4-ylcarbamoyl)benzoic acid]	26.6%	–	–	–	10.8%
C/C(O)=C(\C#N)C(=O)Nc1ccc(C(F)(F)F)cc1 [Teriflunomide, reference compound]	–	–	–	77.2%	0%
O=C(O)c1ccccc1C(=O)Nc1c(F)cc(-c2ccc3c(c2)CCO3)cc1Cl [Example 53, 2-[2-Chloro-4-(2,3-dihydrobenzofuran-5-yl)-6-fluorophenylcarbamoyl]benzoic acid]	–	–	–	–	8.28%
CCOc1cccc(-c2cc(F)c(NC(=O)c3ccccc3C(=O)O)c(Cl)c2)c1F [Example 66, 2-(3-chloro-3′-ethoxy-2′,5-difluorobiphenyl-4-ylcarbamoyl)benzoic acid]	87.5%	84.4 nM	–	–	–
O=C(O)c1ccccc1C(=O)Nc1c(F)cc(-c2cccc(OCC(F)(F)F)c2)cc1Cl [Example 68, 2-[3-chloro-5-fluoro-3′-(2,2,2-trifluoroethoxy)biphenyl-4-ylcarbamoyl]benzoic acid]	86.5%	62.2 nM	–	–	–
CCOc1cccc(-c2cc(F)c(NC(=O)c3ccccc3CO)c(F)c2)c1 [Example 37, N-(3′-Ethoxy-3,5-difluorobiphenyl-4-yl)-2-(hydroxymethyl)benzamide]	14.8%	–	–	–	17.8%

The next lines start with results.

inhibition at 1 µM (h-DHODH)	IC50 (h-DHODH)	inhibition at 0.3 µM (h-DHODH)	inhibition at 10 µM (h-DHODH; compound tested at 10 uM)	Structure (SMILES)	inhibition at 10 µM (IL-17)
12.4%	–	–	–	COc1cc(-c2cc(F)c(NC(=O)c3ccccc3C(=O)O)c(F)c2)ccc1F [Example 62, 2-(3,4′,5-trifluoro-3′-methoxybiphenyl-4-ylcarbamoyl)benzoic acid]	8.34%
–	–	43.6%	–	O=C(O)c1ccccc1C(=O)Nc1c(F)cc(-c2cccc(OCC(F)(F)F)c2)cc1F [Example 83, 2-[3,5-difluoro-3′-(2,2,2-trifluoroethoxy)biphenyl-4-ylcarbamoyl]benzoic acid]	8.79%
71.2%	146 nM	–	–	CCc1cccc(-c2cc(F)c(NC(=O)c3ccccc3C(=O)O)c(Cl)c2)c1 [Example 65, 2-(3-chloro-3′-ethyl-5-fluorobiphenyl-4-ylcarbamoyl)benzoic acid]	11%
55.2%	–	–	–	O=C(O)c1ccccc1C(=O)Nc1c(F)cc(-c2ccc3c(c2)OCO3)cc1F [Example 47, 2-[4-(Benzo[d][1,3]dioxol-5-yl)-2,6-difluorophenylcarbamoyl]benzoic acid]	6.22%
76.1%	–	–	–	COc1ccc(F)c(-c2cc(F)c(NC(=O)c3ccccc3C(=O)O)c(F)c2)c1 [Example 58, 2-(2′,3,5-Trifluoro-5′-methoxybiphenyl-4-ylcarbamoyl)benzoic acid]	5.46%
23.4%	–	–	–	Cc1n[nH]c2ccc(-c3cc(F)c(NC(=O)c4ccccc4C(=O)O)c(F)c3)cc12 [Example 64, 2-[2,6-difluoro-4-(3-methyl-1H-indazol-5-yl)phenylcarbamoyl]benzoic acid]	15.3%
76.7%	22 nM	–	–	Cc1c[nH]c2ccc(-c3cc(F)c(NC(=O)c4ccccc4C(=O)O)c(F)c3)cc12 [Example 63, 2-[2,6-difluoro-4-(3-methyl-1H-indol-5-yl)phenylcarbamoyl]benzoic acid]	0%
34.5%	–	–	–	COc1cc(-c2cc(F)c(NC(=O)c3ccccc3C(=O)O)c(F)c2)ccc1Cl [Example 59, 2-(4′-Chloro-3,5-difluoro-3′-methoxybiphenyl-4-ylcarbamoyl)benzoic acid]	7.36%
–	–	36.6%	–	CCc1cccc(-c2cc(F)c(NC(=O)c3ccccc3C(=O)O)c(F)c2)c1 [Example 84, 2-(3′-ethyl-3,5-difluorobiphenyl-4-ylcarbamoyl)benzoic acid]	12.1%
44.5%	–	–	–	COc1cc(Cl)cc(-c2cc(F)c(NC(=O)c3ccccc3C(=O)O)c(F)c2)c1 [Example 55, 2-(3′-Chloro-3,5-difluoro-5′-methoxybiphenyl-4-ylcarbamoyl)benzoic acid]	5.66%
58.2%	181 nM	–	–	O=C(O)c1ccccc1C(=O)Nc1c(F)cc(-c2cccc(OC(F)F)c2)cc1F [Example 43, 2-[3′-(Difluoromethoxy)-3,5-difluorobiphenyl-4-ylcarbamoyl]benzoic acid]	6.82%
16.9%	–	–	–	CC[S+]([O-])c1cccc(-c2cc(F)c(NC(=O)c3ccccc3C(=O)O)c(F)c2)c1 (stereo not shown) [Example 72, 2-[3′-(ethylsulfinyl)-3,5-difluorobiphenyl-4-ylcarbamoyl]benzoic acid]	7.36%
96.2%	44.1 nM	–	–	COc1ccc(Cl)c(-c2cc(F)c(NC(=O)c3ccccc3C(=O)O)c(F)c2)c1 [Example 45, 2-(2′-Chloro-3,5-difluoro-5′-methoxybiphenyl-4-ylcarbamoyl)benzoic acid]	48.5%
56%	–	–	–	COc1cc(F)cc(-c2cc(F)c(NC(=O)c3ccccc3C(=O)O)c(F)c2)c1 [Example 46, 2-(3,3′,5-Trifluoro-5′-methoxybiphenyl-4-ylcarbamoyl)benzoic acid]	3.69%
